One test concerns the target 5-HT2A (Homo sapiens, UniProt P28223). In words: Radioligand binding at 5-HT2A(h) (agonist radioligand), Eurofins Cerep Panlabs. The following applies: human receptor, duplicate, read-out: Percent Inhibition of the Binding of a Specific Radioligand, 5-HT2A; for inhibition at 0.1 µM: % inh. at 100 nM; for inhibition at 1 µM: % inh. at 1.0 μM. The source says: FIG. 2. Histogram for 5-HT2A(h) (agonist radioligand).

The target of another test is T1, 5-HT1A (Homo sapiens, UniProt P08908).
T1 sequence (P08908 1-422): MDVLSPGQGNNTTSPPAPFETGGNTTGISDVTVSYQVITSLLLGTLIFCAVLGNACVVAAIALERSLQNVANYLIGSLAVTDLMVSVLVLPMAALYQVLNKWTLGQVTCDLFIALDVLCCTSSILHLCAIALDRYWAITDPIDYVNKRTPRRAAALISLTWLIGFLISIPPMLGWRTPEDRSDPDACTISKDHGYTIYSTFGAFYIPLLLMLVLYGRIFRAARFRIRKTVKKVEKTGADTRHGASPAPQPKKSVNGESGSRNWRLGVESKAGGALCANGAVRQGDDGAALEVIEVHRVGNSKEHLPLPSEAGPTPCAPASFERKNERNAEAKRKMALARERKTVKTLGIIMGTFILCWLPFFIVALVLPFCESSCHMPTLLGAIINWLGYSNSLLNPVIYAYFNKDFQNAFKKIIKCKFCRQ
In words: Radioligand binding at 5-HT1A(h) (agonist radioligand), Eurofins Cerep Panlabs. The following applies: human receptor, duplicate, read-out: Percent Inhibition of the Binding of a Specific Radioligand, 5-HT1A; for inhibition at 0.1 µM: % inh. at 100 nM; for inhibition at 1 µM: % inh. at 1.0 μM. The source says:
FIG. 1. Histogram for 5-HT1A(h) (agonist radioligand).

For a further test, the target named is 5-HT2B (Homo sapiens, UniProt P41595). The test is described as follows: Radioligand binding at 5-HT2B(h) (agonist radioligand), Eurofins Cerep Panlabs. The following applies: human receptor, duplicate, read-out: Percent Inhibition of the Binding of a Specific Radioligand, 5-HT2B; for inhibition at 0.1 µM: % inh. at 100 nM; for inhibition at 1 µM: % inh. at 1.0 μM. The source says: FIG. 3. Histogram for 5-HT2B(h) (agonist radioligand).

Another test deals with T2, 5-HT2C (Homo sapiens, UniProt P28335).
T2 sequence (P28335 33-458): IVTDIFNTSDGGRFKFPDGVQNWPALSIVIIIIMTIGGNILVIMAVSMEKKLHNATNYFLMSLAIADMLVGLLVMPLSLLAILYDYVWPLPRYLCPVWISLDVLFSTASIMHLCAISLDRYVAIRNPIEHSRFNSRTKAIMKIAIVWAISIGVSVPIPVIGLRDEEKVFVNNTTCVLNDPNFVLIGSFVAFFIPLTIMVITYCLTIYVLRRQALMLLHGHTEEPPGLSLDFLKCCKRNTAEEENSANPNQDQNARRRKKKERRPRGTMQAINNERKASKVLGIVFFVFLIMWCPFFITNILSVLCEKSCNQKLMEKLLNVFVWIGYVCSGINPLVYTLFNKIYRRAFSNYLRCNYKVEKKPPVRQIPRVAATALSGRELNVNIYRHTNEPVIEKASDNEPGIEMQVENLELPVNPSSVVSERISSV
The test is described as follows: Radioligand binding at 5-HT2C(h) (agonist radioligand), Eurofins Cerep Panlabs. The following applies: human receptor, duplicate, read-out: Percent Inhibition of the Binding of a Specific Radioligand, 5-HT2C; for inhibition at 0.1 µM: % inh. at 100 nM; for inhibition at 1 µM: % inh. at 1.0 μM. The source says: FIG. 4. Histogram for 5-HT2C(h) (agonist radioligand).

The target in a further test is Histamine H1 (Homo sapiens, UniProt P35367). In words: CNS receptor radioligand binding, Histamine H1 (human). The following applies: 10 μM.
The target in another test is Dopamine D3 (Homo sapiens, UniProt P35462). In words: CNS receptor radioligand binding, Dopamine D3.
In test [1] the target is T3, Serotonin 5-HT2A (Homo sapiens, UniProt P28223). The test is described as follows: CNS receptor radioligand binding, Serotonin 5-HT2A.
In the next test the test system is GABAA. In words: CNS receptor radioligand binding, GABAA. The following applies: 10 μM; rat receptor data.
Another test has as its target Opiate κ (Homo sapiens, UniProt P41145). In words: CNS receptor radioligand binding, Opiate κ. The following applies: 10 μM.
In test [2] the target is Nicotinic Acetylcholine α4β2 (Homo sapiens, UniProt P17787+P43681). The test is described as follows: CNS receptor radioligand binding, Nicotinic Acetylcholine α4β2. The following applies: 10 μM.
The target in another test is T4, Muscarinic M2 (Homo sapiens, UniProt P08172).
T4 sequence (P08172 1-466): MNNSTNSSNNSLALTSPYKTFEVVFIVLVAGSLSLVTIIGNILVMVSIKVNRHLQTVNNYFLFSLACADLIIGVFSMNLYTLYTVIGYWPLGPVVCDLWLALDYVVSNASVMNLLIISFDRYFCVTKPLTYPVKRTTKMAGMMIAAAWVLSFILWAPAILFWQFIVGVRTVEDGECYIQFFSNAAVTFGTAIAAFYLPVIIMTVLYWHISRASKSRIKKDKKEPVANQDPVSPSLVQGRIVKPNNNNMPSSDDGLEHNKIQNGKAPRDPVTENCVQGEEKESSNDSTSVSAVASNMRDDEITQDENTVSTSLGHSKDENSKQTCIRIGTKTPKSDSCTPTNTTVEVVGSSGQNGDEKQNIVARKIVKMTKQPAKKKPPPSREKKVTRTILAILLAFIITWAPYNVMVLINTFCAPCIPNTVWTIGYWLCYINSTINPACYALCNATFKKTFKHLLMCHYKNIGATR
In words: CNS receptor radioligand binding, Muscarinic M2. The following applies: 10 μM.

For test [3], the target named is T5, Serotonin 5-HT1A (Homo sapiens, UniProt P08908).
T5 sequence (P08908 1-422): T1 sequence (P08908 1-422)
In words: Receptor activation potency, Serotonin 5-HT1A. The following applies: 5-point concentration response curves, duplicate. The class given is biochemical.

Test [4] addresses T5, Serotonin 5-HT1A. In words: CNS receptor radioligand binding, Serotonin 5-HT1A.
A further test deals with Sigma-1 (Homo sapiens, UniProt Q99720). The test is described as follows: Inhibition constant, Sigma-1. Type of test: binding. The following applies: human receptor; 5-point concentration response curves; duplicate; read-out: inhibition constants Ki, Sigma-1.
The subject of the next test is Adrenergic α1. In words: CNS receptor radioligand binding, Adrenergic α1. The following applies: 10 μM; rat receptor data.
The target in the next test is Dopamine D1 (Homo sapiens, UniProt P21728). In words: CNS receptor radioligand binding, Dopamine D1. The following applies: 10 μM.
The next test has as its target Serotonin 5-HT2B (Homo sapiens, UniProt P41595). The test is described as follows: Receptor activation potency, Serotonin 5-HT2B. The class given is biochemical. The following applies: 5-point concentration response curves, duplicate.
The target in the next test is T6, Serotonin 5-HT2C (Homo sapiens, UniProt P28335).
T6 sequence (P28335 33-458): T2 sequence (P28335 33-458)
In words: Receptor activation potency, Serotonin 5-HT2C. The following applies: 5-point concentration response curves, duplicate. Type of test: biochemical.

Another test has as its target Dopamine D2L (Homo sapiens, UniProt P14416). In words: CNS receptor radioligand binding, Dopamine D2L. The following applies: 10 μM.
The target in a further test is T7, Muscarinic M5 (Homo sapiens, UniProt P08912).
T7 sequence (P08912 1-532): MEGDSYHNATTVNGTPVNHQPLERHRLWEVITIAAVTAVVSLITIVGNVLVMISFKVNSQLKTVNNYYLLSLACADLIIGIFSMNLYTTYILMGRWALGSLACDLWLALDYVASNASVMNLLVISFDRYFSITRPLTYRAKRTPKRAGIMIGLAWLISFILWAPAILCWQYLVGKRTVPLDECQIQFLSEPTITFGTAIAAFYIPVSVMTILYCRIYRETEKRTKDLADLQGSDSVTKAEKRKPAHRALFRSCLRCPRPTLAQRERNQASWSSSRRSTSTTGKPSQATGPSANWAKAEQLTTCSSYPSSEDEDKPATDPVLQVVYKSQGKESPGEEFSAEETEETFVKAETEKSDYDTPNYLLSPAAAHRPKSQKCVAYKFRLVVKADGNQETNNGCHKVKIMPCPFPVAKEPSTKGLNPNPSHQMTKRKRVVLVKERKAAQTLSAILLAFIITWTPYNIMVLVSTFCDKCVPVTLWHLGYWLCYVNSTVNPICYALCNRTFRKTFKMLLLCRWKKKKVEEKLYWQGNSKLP
In words: CNS receptor radioligand binding, Muscarinic M5. The following applies: 10 μM.

A further test deals with T8, Orexin OX1 (Homo sapiens, UniProt O43613).
T8 sequence (O43613 1-425): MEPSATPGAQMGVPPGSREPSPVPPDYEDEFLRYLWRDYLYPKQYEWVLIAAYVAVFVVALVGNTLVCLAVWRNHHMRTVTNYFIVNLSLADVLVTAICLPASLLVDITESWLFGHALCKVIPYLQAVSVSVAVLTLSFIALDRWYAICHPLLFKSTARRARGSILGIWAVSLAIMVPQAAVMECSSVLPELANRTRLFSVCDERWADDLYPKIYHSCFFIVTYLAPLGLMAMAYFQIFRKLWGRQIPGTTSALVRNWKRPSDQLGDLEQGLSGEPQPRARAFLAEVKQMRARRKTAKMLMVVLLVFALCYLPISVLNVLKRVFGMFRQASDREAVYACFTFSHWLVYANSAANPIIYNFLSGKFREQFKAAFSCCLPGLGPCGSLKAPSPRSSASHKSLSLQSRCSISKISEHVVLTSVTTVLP
The test is described as follows: CNS receptor radioligand binding, Orexin OX1. The following applies: 10 μM.

The target in test [5] is T3, Serotonin 5-HT2A. The test is described as follows: Receptor activation potency, Serotonin 5-HT2A. The following applies: 5-point concentration response curves, duplicate. The class given is biochemical.

5-HT2B, sequence (P41595 whole entry): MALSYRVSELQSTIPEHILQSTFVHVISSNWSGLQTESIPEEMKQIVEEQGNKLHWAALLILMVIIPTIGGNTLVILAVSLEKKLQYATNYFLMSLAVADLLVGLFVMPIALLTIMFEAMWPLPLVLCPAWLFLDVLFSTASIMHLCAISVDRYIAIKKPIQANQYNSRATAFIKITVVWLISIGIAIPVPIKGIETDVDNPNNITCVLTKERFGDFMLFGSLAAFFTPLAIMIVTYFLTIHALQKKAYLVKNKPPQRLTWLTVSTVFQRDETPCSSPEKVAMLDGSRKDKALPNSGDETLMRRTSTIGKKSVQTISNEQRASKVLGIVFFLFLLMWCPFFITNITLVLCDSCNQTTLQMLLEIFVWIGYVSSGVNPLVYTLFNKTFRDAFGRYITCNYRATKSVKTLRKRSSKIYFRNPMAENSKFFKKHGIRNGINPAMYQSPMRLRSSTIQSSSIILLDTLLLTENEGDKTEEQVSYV
T3 sequence (P28223 whole entry, looked up): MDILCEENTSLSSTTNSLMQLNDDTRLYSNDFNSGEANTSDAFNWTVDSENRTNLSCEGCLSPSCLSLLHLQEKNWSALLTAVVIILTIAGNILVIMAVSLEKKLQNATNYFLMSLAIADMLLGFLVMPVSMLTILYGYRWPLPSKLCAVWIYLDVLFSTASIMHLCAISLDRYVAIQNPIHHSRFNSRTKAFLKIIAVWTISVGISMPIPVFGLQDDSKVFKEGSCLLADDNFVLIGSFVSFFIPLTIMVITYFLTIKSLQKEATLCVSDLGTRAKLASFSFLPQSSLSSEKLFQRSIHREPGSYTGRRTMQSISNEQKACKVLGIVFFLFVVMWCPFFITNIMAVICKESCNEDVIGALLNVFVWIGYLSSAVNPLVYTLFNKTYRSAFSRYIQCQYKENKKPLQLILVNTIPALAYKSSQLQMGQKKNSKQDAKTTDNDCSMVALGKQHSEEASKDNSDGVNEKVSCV
5-HT2A, sequence (P28223 whole entry, looked up): as above
Dopamine D3, sequence (P35462 whole entry): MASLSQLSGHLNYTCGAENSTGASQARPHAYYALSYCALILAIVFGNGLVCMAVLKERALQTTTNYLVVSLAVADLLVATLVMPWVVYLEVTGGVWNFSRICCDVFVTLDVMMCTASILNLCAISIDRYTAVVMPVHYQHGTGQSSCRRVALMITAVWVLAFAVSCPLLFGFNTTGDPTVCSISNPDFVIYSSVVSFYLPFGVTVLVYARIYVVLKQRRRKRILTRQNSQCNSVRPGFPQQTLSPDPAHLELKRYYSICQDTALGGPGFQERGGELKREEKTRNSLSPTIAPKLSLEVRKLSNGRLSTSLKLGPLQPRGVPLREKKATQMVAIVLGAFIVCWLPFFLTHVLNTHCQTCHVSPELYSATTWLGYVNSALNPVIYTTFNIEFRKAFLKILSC
Serotonin 5-HT2B, sequence (P41595 whole entry): as the sequence (P41595 whole entry) above
Nicotinic Acetylcholine α4β2, sequence (P43681 29-627 limits assumed): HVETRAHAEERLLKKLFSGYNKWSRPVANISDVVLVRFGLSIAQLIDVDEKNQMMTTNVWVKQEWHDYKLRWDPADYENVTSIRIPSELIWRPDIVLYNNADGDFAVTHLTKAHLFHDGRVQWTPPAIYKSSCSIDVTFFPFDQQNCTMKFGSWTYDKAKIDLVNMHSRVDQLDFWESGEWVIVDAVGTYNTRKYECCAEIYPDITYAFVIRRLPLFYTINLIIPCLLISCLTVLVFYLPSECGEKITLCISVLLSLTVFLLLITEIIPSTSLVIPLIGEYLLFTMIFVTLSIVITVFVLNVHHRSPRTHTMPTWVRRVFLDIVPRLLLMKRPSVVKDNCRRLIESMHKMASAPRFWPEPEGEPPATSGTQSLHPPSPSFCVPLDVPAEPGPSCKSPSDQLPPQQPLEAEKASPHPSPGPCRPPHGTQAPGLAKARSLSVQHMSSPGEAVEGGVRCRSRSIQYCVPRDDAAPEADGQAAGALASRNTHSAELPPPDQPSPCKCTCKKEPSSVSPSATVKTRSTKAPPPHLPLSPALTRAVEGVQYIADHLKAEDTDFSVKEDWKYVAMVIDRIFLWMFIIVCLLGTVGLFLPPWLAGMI
Nicotinic Acetylcholine α4β2, sequence (P17787 26-502): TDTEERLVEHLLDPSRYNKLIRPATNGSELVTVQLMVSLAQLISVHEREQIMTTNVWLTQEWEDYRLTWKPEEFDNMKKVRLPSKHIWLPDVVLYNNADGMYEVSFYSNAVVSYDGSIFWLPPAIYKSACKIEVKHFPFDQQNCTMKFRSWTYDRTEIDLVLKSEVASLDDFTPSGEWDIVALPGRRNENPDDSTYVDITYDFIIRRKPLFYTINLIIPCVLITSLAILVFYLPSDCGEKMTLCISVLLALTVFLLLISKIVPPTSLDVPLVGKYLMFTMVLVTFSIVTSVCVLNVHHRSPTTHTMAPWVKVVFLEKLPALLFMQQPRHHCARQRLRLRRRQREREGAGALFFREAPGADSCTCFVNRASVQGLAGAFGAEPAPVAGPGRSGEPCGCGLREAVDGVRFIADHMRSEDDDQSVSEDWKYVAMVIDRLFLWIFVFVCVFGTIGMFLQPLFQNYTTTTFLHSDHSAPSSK
Dopamine D1, sequence (P21728 whole entry): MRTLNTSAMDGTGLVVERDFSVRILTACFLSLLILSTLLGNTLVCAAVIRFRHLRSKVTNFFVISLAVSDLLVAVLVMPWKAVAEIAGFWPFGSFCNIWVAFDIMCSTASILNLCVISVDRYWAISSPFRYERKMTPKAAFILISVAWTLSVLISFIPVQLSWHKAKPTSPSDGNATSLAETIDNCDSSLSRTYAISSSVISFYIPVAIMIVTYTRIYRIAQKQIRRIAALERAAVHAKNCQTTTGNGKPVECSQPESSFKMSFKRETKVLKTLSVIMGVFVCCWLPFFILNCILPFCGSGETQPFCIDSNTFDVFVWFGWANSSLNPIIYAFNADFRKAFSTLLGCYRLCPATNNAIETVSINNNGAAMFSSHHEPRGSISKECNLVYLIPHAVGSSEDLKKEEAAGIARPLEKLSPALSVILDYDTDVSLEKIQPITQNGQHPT
Histamine H1, sequence (P35367 whole entry): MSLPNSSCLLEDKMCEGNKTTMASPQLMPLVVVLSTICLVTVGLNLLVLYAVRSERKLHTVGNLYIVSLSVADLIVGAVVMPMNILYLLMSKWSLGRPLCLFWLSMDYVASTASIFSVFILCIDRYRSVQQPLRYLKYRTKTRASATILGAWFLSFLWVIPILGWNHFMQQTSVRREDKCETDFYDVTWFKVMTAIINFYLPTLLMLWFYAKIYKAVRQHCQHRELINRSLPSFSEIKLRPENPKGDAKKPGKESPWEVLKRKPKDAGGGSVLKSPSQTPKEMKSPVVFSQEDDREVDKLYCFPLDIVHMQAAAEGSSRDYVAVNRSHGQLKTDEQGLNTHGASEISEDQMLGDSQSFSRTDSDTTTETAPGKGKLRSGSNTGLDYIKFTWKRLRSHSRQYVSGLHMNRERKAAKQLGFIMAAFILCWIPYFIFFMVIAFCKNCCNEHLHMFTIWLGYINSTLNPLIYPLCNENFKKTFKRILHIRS
Opiate κ, sequence (P41145 whole entry): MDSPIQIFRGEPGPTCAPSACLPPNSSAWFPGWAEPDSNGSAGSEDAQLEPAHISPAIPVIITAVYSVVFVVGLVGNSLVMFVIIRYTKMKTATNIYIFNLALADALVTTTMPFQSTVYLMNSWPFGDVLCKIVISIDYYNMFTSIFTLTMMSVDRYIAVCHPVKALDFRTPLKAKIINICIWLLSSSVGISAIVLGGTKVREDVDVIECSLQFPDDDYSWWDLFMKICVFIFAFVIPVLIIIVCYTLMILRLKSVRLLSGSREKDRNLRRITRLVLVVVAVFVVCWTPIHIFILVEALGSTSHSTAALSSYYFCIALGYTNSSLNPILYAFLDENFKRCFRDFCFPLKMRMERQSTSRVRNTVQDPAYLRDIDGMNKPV
Dopamine D2L, sequence (P14416 whole entry): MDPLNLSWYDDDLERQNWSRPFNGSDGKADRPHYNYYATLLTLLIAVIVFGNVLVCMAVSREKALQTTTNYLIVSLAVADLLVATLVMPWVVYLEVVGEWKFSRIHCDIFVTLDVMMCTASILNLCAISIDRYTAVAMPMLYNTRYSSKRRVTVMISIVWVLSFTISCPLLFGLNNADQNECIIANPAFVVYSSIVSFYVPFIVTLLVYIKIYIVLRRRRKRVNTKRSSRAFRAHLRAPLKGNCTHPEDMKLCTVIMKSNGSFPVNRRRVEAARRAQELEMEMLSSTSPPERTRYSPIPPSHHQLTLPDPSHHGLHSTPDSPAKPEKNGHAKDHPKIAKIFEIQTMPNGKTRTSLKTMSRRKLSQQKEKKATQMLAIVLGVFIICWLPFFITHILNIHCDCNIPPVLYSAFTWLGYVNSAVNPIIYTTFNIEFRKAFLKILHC
Sigma-1, sequence (Q99720 whole entry): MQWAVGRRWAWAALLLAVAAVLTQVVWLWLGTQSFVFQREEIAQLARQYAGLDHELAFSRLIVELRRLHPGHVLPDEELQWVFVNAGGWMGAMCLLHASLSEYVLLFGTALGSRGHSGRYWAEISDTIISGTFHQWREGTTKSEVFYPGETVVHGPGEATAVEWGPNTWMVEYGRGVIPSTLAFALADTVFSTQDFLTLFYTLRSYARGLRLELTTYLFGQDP

For the molecule `CN1C[C@@H](CO)C=C2c3cccc4[nH]cc(c34)C[C@H]21` [(+)-2, (+)-isolysergol], the inhibition at 0.1 µM on 5-HT2A is 92%; at 5-HT1A, 96%; on 5-HT2B, 90%; on 5-HT2C it was 91%. In addition, the inhibition at 1 µM at 5-HT2A worked out at 99%; at 5-HT1A, 99%; on 5-HT2B, 93%; at 5-HT2C it was 97%.

(−)-Cycloclavine: at Histamine H1, the “Percent Inhibition of Specific Binding of a Radioligand Standard, Histamine H1” value turned out to be 27 % inh. The results for the “Percent Inhibition of Specific Binding of a Radioligand Standard, Dopamine D3” value on Dopamine D3 (1 μM) and at Dopamine D3 (10 μM) were 32 % inh and 64 % inh, respectively. Moreover, the “Percent Inhibition of Specific Binding of a Radioligand Standard, Serotonin 5-HT2A” value on Serotonin 5-HT2A [1] (1 μM) is 51 % inh; on Serotonin 5-HT2A [1] (10 μM), 89 % inh. Further, the “Percent Inhibition of Specific Binding of a Radioligand Standard, GABAA” value in the test with GABAA worked out at 0 % inh. The “Percent Inhibition of Specific Binding of a Radioligand Standard, Opiate κ” value on Opiate κ stood at 75 % inh. Besides, the “Percent Inhibition of Specific Binding of a Radioligand Standard, Nicotinic Acetylcholine α4β2” value in [2] amounted to 11 % inh. The “Percent Inhibition of Specific Binding of a Radioligand Standard, Muscarinic M2” value on Muscarinic M2 turned out to be 0 % inh. Further, the EC50 on Serotonin 5-HT1A [3] was around 5 µM; on Serotonin 5-HT2B, above 20 µM; on Serotonin 5-HT2C it was 3.2 µM; on Serotonin 5-HT2A [5], above 50 µM. The figures for the “Percent Inhibition of Specific Binding of a Radioligand Standard, Serotonin 5-HT1A” value at Serotonin 5-HT1A [4] (1 μM) and at Serotonin 5-HT1A [4] (10 μM) were 73 % inh and 91 % inh, respectively. Also, at Sigma-1, the Ki amounted to 8.3 µM. Moreover, the “Percent Inhibition of Specific Binding of a Radioligand Standard, Adrenergic α1” value in the test with Adrenergic α1 worked out at 59 % inh. In addition, the “Percent Inhibition of Specific Binding of a Radioligand Standard, Dopamine D1” value at Dopamine D1 was 30 % inh. The “Percent Inhibition of Specific Binding of a Radioligand Standard, Dopamine D2L” value on Dopamine D2L worked out at 14 % inh. Also, at Muscarinic M5, the “Percent Inhibition of Specific Binding of a Radioligand Standard, Muscarinic M5” value was 15 % inh. Besides, the “Percent Inhibition of Specific Binding of a Radioligand Standard, Orexin OX1” value at Orexin OX1 amounted to 6 % inh.

Regarding `CN1C[C@H](CO)C=C2c3cccc4[nH]cc(c34)C[C@H]21` [(+)-1, (+)-lysergol], the inhibition at 0.1 µM on 5-HT2A came out at 96%; on 5-HT1A, 94%; at 5-HT2B, 96%; on 5-HT2C, 97%. Besides, the inhibition at 1 µM amounted to 97% at 5-HT2A, 99% on 5-HT1A, 99% on 5-HT2B and 99% at 5-HT2C.

For the molecule `CN1C[C@@H](CO)C=C2c3cccc4[nH]cc(c34)C[C@@H]21` [(−)-1, (−)-lysergol], the inhibition at 0.1 µM at 5-HT2A came to 12%; on 5-HT1A, 27%; on 5-HT2B it was 34%; at 5-HT2C, 41%. Also, the inhibition at 1 µM is 62% on 5-HT2A, 67% at 5-HT1A, 87% at 5-HT2B and 86% on 5-HT2C.

`CN1C[C@H](CO)C=C2c3cccc4[nH]cc(c34)C[C@@H]21` [(−)-2, (−)-isolysergol]: the inhibition at 0.1 µM was determined as 0% at 5-HT2A, 9% at 5-HT1A, 3% on 5-HT2B and 5% at 5-HT2C. In addition, the inhibition at 1 µM on 5-HT2A worked out at 20%; at 5-HT1A, 19%; at 5-HT2B it was 16%; on 5-HT2C, 44%.

For the origin of these results see US20240343692A1 (priority 2021, published 2024).
